Assay results as given in US20210300940A1 (Merck Patent GmbH, priority 2018, published 2021).

Tests used:
TLR8 = biological target: T1, TLR8 (Homo sapiens, UniProt Q9NR97); test: HEK/293 TLR8 Cell Assay; format: cell-based; conditions: HEK cells, R848 agonist 30 uM final concentration, Steady-Glo readout; read-out: TLR8 potency
T1 construct: expressed in transfected cells; host or cells: HEK/293 reporter cells (NF-kB luciferase)
T1 sequence (Q9NR97 27-1041): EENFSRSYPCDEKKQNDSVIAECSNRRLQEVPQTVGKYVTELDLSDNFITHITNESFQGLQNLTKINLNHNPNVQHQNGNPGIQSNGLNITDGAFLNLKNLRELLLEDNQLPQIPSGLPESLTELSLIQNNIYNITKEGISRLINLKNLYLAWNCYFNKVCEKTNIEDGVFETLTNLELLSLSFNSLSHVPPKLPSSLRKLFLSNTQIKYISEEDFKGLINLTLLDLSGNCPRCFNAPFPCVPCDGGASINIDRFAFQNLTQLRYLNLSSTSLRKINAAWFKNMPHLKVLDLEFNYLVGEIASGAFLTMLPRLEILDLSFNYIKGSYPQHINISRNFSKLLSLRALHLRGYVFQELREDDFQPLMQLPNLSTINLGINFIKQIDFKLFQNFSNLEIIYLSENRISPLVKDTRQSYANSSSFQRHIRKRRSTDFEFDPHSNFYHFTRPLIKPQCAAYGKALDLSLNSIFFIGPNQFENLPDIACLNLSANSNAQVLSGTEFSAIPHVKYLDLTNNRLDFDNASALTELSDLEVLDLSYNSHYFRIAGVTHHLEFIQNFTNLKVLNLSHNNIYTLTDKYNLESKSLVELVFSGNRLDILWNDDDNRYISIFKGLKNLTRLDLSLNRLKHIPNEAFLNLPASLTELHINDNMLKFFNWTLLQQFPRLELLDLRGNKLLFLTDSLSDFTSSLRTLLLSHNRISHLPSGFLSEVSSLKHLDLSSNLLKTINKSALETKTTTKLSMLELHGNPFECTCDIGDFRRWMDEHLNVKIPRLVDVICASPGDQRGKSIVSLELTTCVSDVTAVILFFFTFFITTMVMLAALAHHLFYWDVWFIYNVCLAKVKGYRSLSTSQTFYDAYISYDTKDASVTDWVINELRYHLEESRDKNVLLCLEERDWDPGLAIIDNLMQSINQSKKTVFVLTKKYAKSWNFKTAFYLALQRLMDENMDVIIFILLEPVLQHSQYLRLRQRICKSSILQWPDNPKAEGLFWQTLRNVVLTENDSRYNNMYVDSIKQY

TLR7 = biological target: T2, TLR7 (Homo sapiens, UniProt Q9NYK1); test: HEK/293 TLR7 Cell Assay; format: cell-based; conditions: TLR7/NFKb HEK cells, R848 agonist 10 uM final concentration, Steady-Glo readout; read-out: TLR7 potency
T2 construct: expressed in transfected cells; host or cells: HEK/293 cells carrying TLR7 and an NF-kB luciferase reporter
T2 sequence (Q9NYK1 27-1049): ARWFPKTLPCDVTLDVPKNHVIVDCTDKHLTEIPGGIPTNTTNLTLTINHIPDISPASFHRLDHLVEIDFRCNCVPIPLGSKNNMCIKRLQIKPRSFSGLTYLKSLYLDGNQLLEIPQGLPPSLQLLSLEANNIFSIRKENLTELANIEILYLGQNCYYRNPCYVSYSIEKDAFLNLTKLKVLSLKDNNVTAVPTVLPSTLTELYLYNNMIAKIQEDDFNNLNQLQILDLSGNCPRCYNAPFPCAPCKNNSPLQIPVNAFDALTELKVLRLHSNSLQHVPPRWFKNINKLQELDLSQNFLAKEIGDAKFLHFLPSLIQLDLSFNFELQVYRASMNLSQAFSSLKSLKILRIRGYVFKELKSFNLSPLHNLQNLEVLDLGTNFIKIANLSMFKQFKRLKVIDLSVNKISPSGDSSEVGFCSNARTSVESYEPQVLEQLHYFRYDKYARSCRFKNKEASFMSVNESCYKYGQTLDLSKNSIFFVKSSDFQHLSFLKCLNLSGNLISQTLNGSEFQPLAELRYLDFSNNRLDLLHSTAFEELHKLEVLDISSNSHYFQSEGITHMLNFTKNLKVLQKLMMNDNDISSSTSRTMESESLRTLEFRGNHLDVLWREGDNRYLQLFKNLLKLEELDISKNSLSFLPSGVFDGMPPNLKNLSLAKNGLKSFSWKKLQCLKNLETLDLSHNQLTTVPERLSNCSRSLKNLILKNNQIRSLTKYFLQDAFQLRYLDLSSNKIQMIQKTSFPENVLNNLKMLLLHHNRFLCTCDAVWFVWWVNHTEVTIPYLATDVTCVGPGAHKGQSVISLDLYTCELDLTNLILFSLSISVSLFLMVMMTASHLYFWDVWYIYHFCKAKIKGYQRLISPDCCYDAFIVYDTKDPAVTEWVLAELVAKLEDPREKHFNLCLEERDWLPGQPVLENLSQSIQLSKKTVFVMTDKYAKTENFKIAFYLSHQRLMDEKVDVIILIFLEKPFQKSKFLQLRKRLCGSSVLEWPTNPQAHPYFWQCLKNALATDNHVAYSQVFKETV
Summary of the method: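 Compounds added to HEK cells expressing TLR7 with an NFκB reporter 30 min ahead of 10 uM R848 challenge; luciferase signal (Steady-Glo) measured after 5 h, cells having been seeded 24 h earlier at 5000 per well.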

Structure (SMILES) | IC50 (TLR8) [nM] | IC50 (TLR7) [nM]
COCC(O)CNC(=O)[C@H]1CN(c2ccc(C#N)c3nccnc23)C[C@@H](C)O1 (stereo partly drawn) [Example 252, (2R,6R)-4-(8-Cyano-quinoxalin-5-yl)-6-methyl-morpholine-2-carboxylic acid (2-hydroxy-3-methoxy-propyl)-amide] | < 75 | 75 to 150
C[C@@H]1CN(c2ccc(C#N)c3nccnc23)C[C@H](c2nc(C3CC3)no2)O1 (racemic) [Example 214, 8-[(2R,6R)-2-(3-Cyclopropyl-[1,2,4]oxadiazol-5-yl)-6-methyl-morpholin-4-yl]-quinoxaline-5-carbonitrile] | < 75 | 75 to 150
C[C@@H]1CN(c2ccc(C#N)c3ncncc23)C[C@H](CNC(=O)C2(F)CCNC2)O1 (stereo partly drawn) [Example 343, N-{[(2S,6R)-4-(8-cyanoquinazolin-5-yl)-6-methylmorpholin-2-yl]methyl}-3-fluoropyrrolidine-3-carboxamide] | < 75 | < 75
C[C@@H]1CN(c2ccc(C#N)c3nccnc23)C[C@H](C(=O)NCC2(F)CCNCC2)O1 [Example 290, (2R,6R)-4-(8-Cyano-quinoxalin-5-yl)-6-methyl-morpholine-2-carboxylic acid (4-fluoro-piperidin-4-ylmethyl)-amide] | < 75 | < 75
CN1CCC(O)(CC(=O)N[C@@H]2C[C@H](C(F)(F)F)CN(c3ccc(C#N)c4nccnc34)C2)CC1 [Example 76, N-[(3R,5S)-1-(8-cyanoquinoxalin-5-yl)-5-(trifluoromethyl)piperidin-3-yl]-2-(4-hydroxy-1-methylpiperidin-4-yl)acetamide] | < 75 | 75 to 150
Cc1c(F)cc(N2C[C@@H](C)C[C@@H](NC(=O)CC3(O)CCN(C)CC3)C2)c2cccnc12 [Example 69, N-[(3R,5S)-1-(7-fluoro-8-methylquinolin-5-yl)-5-methylpiperidin-3-yl]-2-(4-hydroxy-1-methylpiperidin-4-yl)acetamide] | < 75 | < 75
CC(C(=O)N[C@@H]1C[C@H](C(F)(F)F)CN(c2ccc(C#N)c3nccnc23)C1)N1CCN(C)CC1 (single isomer, unassigned) [Example 98] | < 75 | < 75
C[C@@H]1CN(c2ccc(C#N)c3ncncc23)C[C@H](C(=O)NC2CCN(C)C3(CCC3)C2)O1 (stereo partly drawn) [Example 347, (2R,6R)-4-(8-Cyano-quinazolin-5-yl)-6-methyl-morpholine-2-carboxylic acid (5-methyl-5-aza-spiro[3.5]non-8-yl)-amide] | < 75 | < 75
CN1CC[C@](F)(CNC(=O)[C@@H]2CN(c3ccc(C#N)c4nccnc34)C[C@H](C(F)(F)F)O2)C1 (single isomer, unassigned) [Example 358] | < 75 | < 75
C[C@@H]1CN(c2cnc(C#N)c3ncccc23)C[C@H](CN2CCS(=O)(=O)CC2)O1 [Example 376, 5-[(2S,6R)-2-(1,1-Dioxo-1lambda6-thiomorpholin-4-ylmethyl)-6-methyl-morpholin-4-yl]-[1,7]naphthyridine-8-carbonitrile] | > 150 | > 150
CN1CC[C@](F)(CNC(=O)[C@H]2CN(c3ccc(C#N)c4nccnc34)C[C@@H](C(F)(F)F)O2)C1 (single isomer, unassigned) [Example 357] | < 75 | < 75
CN1CCC(F)(CNC(=O)[C@H]2CN(c3ccc(C#N)c4nccnc34)C[C@@H](C(F)(F)F)O2)CC1 (single isomer, unassigned) [Example 359] | < 75 | < 75
C[C@@H]1CN(c2ccc(C#N)c3nccnc23)C[C@H](C(=O)NC2CCNCC2(F)F)O1 (stereo partly drawn) [Example 289, (2R,6R)-4-(8-Cyano-quinoxalin-5-yl)-6-methyl-morpholine-2-carboxylic acid (3,3-difluoro-piperidin-4-yl)-amide] | < 75 | < 75
Cc1ncc(N2C[C@@H](C)C[C@@H](NC(=O)CC3(N)CC3)C2)c2cccnc12 [Example 121, 2-(1-aminocyclopropyl)-N-[(3R,5S)-5-methyl-1-(8-methyl-1,7-naphthyridin-5-yl)piperidin-3-yl]acetamide] | < 75 | 75 to 150
CC(C(=O)N[C@@H]1C[C@H](C)CN(c2ccc(C(F)(F)F)c3ncccc23)C1)N1CCN(C)CC1 (single isomer, unassigned) [Example 92] | < 75 | < 75
N#Cc1ccc(N2C[C@H](NCCNC(N)=O)C[C@H](C(F)(F)F)C2)c2cccnc12 [Example 40, {2-[(3R,5S)-1-(8-Cyano-quinolin-5-yl)-5-trifluoromethyl-piperidin-3-ylamino]-ethyl}-urea] | 75 to 150 | > 150
C[C@@H]1CN(c2ccc(C#N)c3ncncc23)C[C@H](C(=O)NC2CCNCC2(F)F)O1 (stereo partly drawn) [Example 299, (2R,6R)-4-(8-Cyano-quinazolin-5-yl)-6-methyl-morpholine-2-carboxylic acid (3,3-difluoro-piperidin-4-yl)-amide] | < 75 | < 75
C[C@@H]1CN(c2cnc(C#N)c3ncccc23)C[C@H](CNC(=O)C2(F)CCNC2)O1 (stereo partly drawn) [Example 332, N-{[(2S,6R)-4-(8-cyano-1,7-naphthyridin-5-yl)-6-methylmorpholin-2-yl]methyl}-3-fluoropyrrolidine-3-carboxamide] | < 75 | 75 to 150
C[C@H]1C[C@@H](NC(=O)NCCN(C)C)CN(c2ccc(C(F)(F)F)c3nccnc23)C1 [Example 141, 3-[2-(dimethylamino)ethyl]-1-[(3R,5S)-5-methyl-1-[8-(trifluoromethyl)quinoxalin-5-yl]piperidin-3-yl]urea] | < 75 | < 75
N#Cc1ccc(N2C[C@@H](C(=O)NC[C@H](O)CO)O[C@@H](C(F)(F)F)C2)c2nccnc12 (single isomer, unassigned) [Example 281] | > 150 | > 150
N#Cc1ccc(N2C[C@@H](C(F)(F)F)O[C@@H](C(=O)NC[C@]3(F)CCNC3)C2)c2cccnc12 (single isomer, unassigned) [Example 314] | > 150 | > 150
N#Cc1ccc(N2C[C@@H](CN3CC(O)C3)O[C@@H](C(F)(F)F)C2)c2nccnc12 (single isomer, unassigned) [Example 362] | > 150 | < 75
Cc1ccc(N2C[C@@H](C)C[C@@H](NC(=O)C(N)C3CC3)C2)c2cccnc12 (stereo partly drawn) [Example 133, 2-Amino-2-cyclopropyl-N-[(3R,5S)-5-methyl-1-(8-methyl-quinolin-5-yl)-piperidin-3-yl]-acetamide] | < 75 | < 75
